≈ marks a conversion by molar mass, not a printed value.
Tests used:
Type in all cases: cell-based
[1] = test system: Salmonella typhi; test: MIC against clinical isolates; settings: unit assumed
[2] = test system: Escherichia coli; test: MIC against clinical isolates; settings: unit assumed
[3] = test system: Pseudomonas aeruginosa I.F.O.; test: MIC against standard strain, plate method; settings: unit assumed
How it was run: (§1)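 Minimum inhibitory concentrations were determined on agar plates of heart infusion medium (pH 7.4) inoculated with 10^4 cells per plate.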

[4] = test system: Escherichia coli NIHJ; test: MIC against standard strain, plate method; settings: unit assumed
How it was run: as §1

[5] = test system: Proteus vulgaris 3027; test: MIC against standard strain, plate method; settings: Proteus vulgaris 3027, standard strain; unit assumed
How it was run: as §1

[6] = test system: Staphylococcus aureus 209p; test: MIC against standard strain, plate method; settings: unit assumed
How it was run: as §1

[7] = test system: Shigella sonnei; test: MIC against clinical isolates; settings: clinical isolate JS 11232; unit assumed
Procedure: (§2) The minimum inhibitory concentrations (MIC) was determined by the plate method disclosed in "Chemotherapy" (Japan), Vol. 16, (1968), pages 98 - 99. The culture medium used was a Heart infusion agar (pH 7.4). The number of the cells per plate used in the inoculum as 10^4 (10^6 cells/ml).
(§3) MIC was determined in the same manner as in the preceding paragraph (1).

[8] = test system: Shigella flexneri; test: MIC against clinical isolates; settings: unit assumed
Procedure: as §2, §3

[9] = test system: Klebsiella pneumoniae; test: MIC against clinical isolates; settings: unit assumed
[10] = test system: Proteus mirabilis; test: MIC against clinical isolates; settings: clinical isolate, unit assumed
[11] = test system: Proteus vulgaris; test: MIC against clinical isolates; settings: clinical isolate, unit assumed
[12] = test system: Pseudomonas aeruginosa; test: MIC against clinical isolates; settings: unit assumed
[13] = test system: Staphylococcus aureus; test: MIC against clinical isolates; settings: unit assumed
[14] = test system: Salmonella typhi-murium; test: MIC against clinical isolates; settings: unit assumed
[15] = test system: Proteus rettgeri; test: MIC against clinical isolates; settings: clinical isolate, unit assumed
[16] = test system: Proteus morganii; test: MIC against clinical isolates; settings: clinical isolate, unit assumed
[17] = test system: Klebsiella pneumoniae; test: MIC against standard strain, plate method; settings: unit assumed
How it was run: as §1

Structure (SMILES): CCCCCCCCN1CCN(C(=O)N[C@@H](C(=O)N[C@@H]2C(=O)N3[C@@H]2SC(C)(C)[C@@H]3C(=O)O)c2ccccc2)C(=O)C1 [compound 16]
- MIC ([1]; clinical isolate SL 819): 3.13 µg/mL (≈ 5.33 µM)
- MIC ([1]; clinical isolate SL 2169): 1.57 µg/mL (≈ 2.67 µM)
- MIC ([2]; clinical isolate GN 3465): 12.5 µg/mL (≈ 21.3 µM)
- MIC ([2]; clinical isolate K-3): 50 µg/mL (≈ 85.1 µM)
- MIC [3]: 12.5 µg/mL (≈ 21.3 µM)
- MIC [4]: < 1.57 µg/mL
- MIC [5]: < 1.57 µg/mL
- MIC [6]: < 1.57 µg/mL
- MIC [7]: 6.25 µg/mL (≈ 10.6 µM)
- MIC ([8]; clinical isolate JS 11215): 6.25 µg/mL (≈ 10.6 µM)
- MIC ([8]; clinical isolate JS 11839): 0.79 µg/mL (≈ 1.34 µM)
- MIC ([9]; clinical isolate GN 917): 12.5 µg/mL (≈ 21.3 µM)
- MIC ([9]; clinical isolate GN 4081): 25 µg/mL (≈ 42.5 µM)
- MIC ([9]; clinical isolate GN 4117): 25 µg/mL (≈ 42.5 µM)
- MIC [10]: 1.56 µg/mL (≈ 2.65 µM)
- MIC [11]: 0.8 µg/mL (≈ 1.36 µM)
- MIC ([12]; clinical isolate GN 82): 6.25 µg/mL (≈ 10.6 µM)
- MIC ([12]; clinical isolate GN 163): 12.5 µg/mL (≈ 21.3 µM)
- MIC ([12]; clinical isolate GN 221): 25 µg/mL (≈ 42.5 µM)
- MIC ([12]; clinical isolate GN 376): 25 µg/mL (≈ 42.5 µM)
- MIC ([12]; clinical isolate GN 383): 25 µg/mL (≈ 42.5 µM)
- MIC ([12]; clinical isolate GN 1035): 25 µg/mL (≈ 42.5 µM)
- MIC ([12]; clinical isolate GN 1091): 12.5 µg/mL (≈ 21.3 µM)
- MIC ([12]; clinical isolate GN 2565): 12.5 µg/mL (≈ 21.3 µM)
- MIC ([12]; clinical isolate GN (number not given; Table 5-3)): 12.5 µg/mL (≈ 21.3 µM)
- MIC ([12]; clinical isolate S-1): 12.5 µg/mL (≈ 21.3 µM)
- MIC ([12]; clinical isolate S-2): 25 µg/mL (≈ 42.5 µM)
- MIC ([12]; clinical isolate S-3): 50 µg/mL (≈ 85.1 µM)
- MIC ([12]; clinical isolate S-4): 25 µg/mL (≈ 42.5 µM)
- MIC ([13]; clinical isolate F-1): 6.25 µg/mL (≈ 10.6 µM)
- MIC ([13]; clinical isolate F-2): 0.79 µg/mL (≈ 1.34 µM)
- MIC ([13]; clinical isolate F-4): 6.25 µg/mL (≈ 10.6 µM)
- MIC ([13]; clinical isolate F-5): 100 µg/mL (≈ 170 µM)
- MIC ([13]; clinical isolate MS 8619): < 0.4 µg/mL
- MIC ([14]; clinical isolate SL 858): 1.57 µg/mL (≈ 2.67 µM)
- MIC ([14]; clinical isolate SL 2136): 100 µg/mL (≈ 170 µM)
- MIC [15]: 6.25 µg/mL (≈ 10.6 µM)
- MIC [16]: 1.56 µg/mL (≈ 2.65 µM)

Structure (SMILES): Cc1nnc(SCC2=C(C(=O)O)N3C(=O)C(NC(=O)C(NC(=O)N4CCN(C)C(=O)C4=O)c4ccccc4)C3SC2)s1 (single isomer, unassigned) [compound 62]
- MIC ([2]; clinical isolate GN 3435): 6.25 µg/mL (≈ 9.89 µM)
- MIC ([2]; clinical isolate GN 3452): 6.25 µg/mL (≈ 9.89 µM)
- MIC ([2]; clinical isolate GN 3465): 25 µg/mL (≈ 39.6 µM)
- MIC ([2]; clinical isolate GN 3481): 6.25 µg/mL (≈ 9.89 µM)
- MIC ([2]; clinical isolate GN 3611): 200 µg/mL (≈ 317 µM)
- MIC ([2]; clinical isolate K-1): 6.25 µg/mL (≈ 9.89 µM)
- MIC ([2]; clinical isolate K-2): 12.5 µg/mL (≈ 19.8 µM)
- MIC ([2]; clinical isolate K-3): 200 µg/mL (≈ 317 µM)
- MIC ([2]; clinical isolate K-4): 12.5 µg/mL (≈ 19.8 µM)
- MIC [3]: 50 µg/mL (≈ 79.1 µM)
- MIC [4]: < 0.1 µg/mL
- MIC [17]: 1.57 µg/mL (≈ 2.49 µM)
- MIC [5]: 3.13 µg/mL (≈ 4.95 µM)
- MIC [6]: 0.79 µg/mL (≈ 1.25 µM)
- MIC ([9]; clinical isolate GN 917): 6.25 µg/mL (≈ 9.89 µM)
- MIC ([9]; clinical isolate GN 4081): 12.5 µg/mL (≈ 19.8 µM)
- MIC ([9]; clinical isolate GN 4117): 25 µg/mL (≈ 39.6 µM)
- MIC [10]: 6.25 µg/mL (≈ 9.89 µM)
- MIC [11]: 3.13 µg/mL (≈ 4.95 µM)
- MIC ([12]; clinical isolate GN 82): 100 µg/mL (≈ 158 µM)
- MIC ([12]; clinical isolate GN 163): 50 µg/mL (≈ 79.1 µM)
- MIC ([12]; clinical isolate GN 221): 50 µg/mL (≈ 79.1 µM)
- MIC ([12]; clinical isolate GN 244): 100 µg/mL (≈ 158 µM)
- MIC ([12]; clinical isolate GN 376): 100 µg/mL (≈ 158 µM)
- MIC ([12]; clinical isolate GN 383): 100 µg/mL (≈ 158 µM)
- MIC ([12]; clinical isolate GN 1035): 200 µg/mL (≈ 317 µM)
- MIC ([12]; clinical isolate GN 1091): 100 µg/mL (≈ 158 µM)
- MIC ([12]; clinical isolate GN 2565): 100 µg/mL (≈ 158 µM)
- MIC ([12]; clinical isolate GN 2987): 50 µg/mL (≈ 79.1 µM)
- MIC ([12]; clinical isolate S-1): 200 µg/mL (≈ 317 µM)
- MIC ([12]; clinical isolate S-2): 200 µg/mL (≈ 317 µM)
- MIC ([12]; clinical isolate S-3): 200 µg/mL (≈ 317 µM)
- MIC ([12]; clinical isolate S-4): 200 µg/mL (≈ 317 µM)
- MIC ([13]; clinical isolate F-1): 3.13 µg/mL (≈ 4.95 µM)
- MIC ([13]; clinical isolate F-2): 0.78 µg/mL (≈ 1.23 µM)
- MIC ([13]; clinical isolate F-3): 1.56 µg/mL (≈ 2.47 µM)
- MIC ([13]; clinical isolate F-4): 1.56 µg/mL (≈ 2.47 µM)
- MIC ([13]; clinical isolate F-5): 12.5 µg/mL (≈ 19.8 µM)
- MIC ([13]; clinical isolate MS 8588): 1.56 µg/mL (≈ 2.47 µM)
- MIC ([13]; clinical isolate MS 8596): 0.78 µg/mL (≈ 1.23 µM)
- MIC ([13]; clinical isolate MS 8619): 0.78 µg/mL (≈ 1.23 µM)
- MIC ([13]; clinical isolate MS 8684): 1.56 µg/mL (≈ 2.47 µM)
- MIC ([13]; clinical isolate MS 8713): 1.56 µg/mL (≈ 2.47 µM)
- MIC [15]: 6.25 µg/mL (≈ 9.89 µM)
- MIC [16]: 3.13 µg/mL (≈ 4.95 µM)

Structure (SMILES): CC(=O)OCC1=C(C(=O)O)N2C(=O)C(NC(=O)C(NC(=O)N3CCN(C)C(=O)C3=O)c3ccccc3)C2SC1 (single isomer, unassigned) [compound 60]
- MIC ([2]; clinical isolate GN 3435): 6.25 µg/mL (≈ 11.2 µM)
- MIC ([2]; clinical isolate GN 3452): 12.5 µg/mL (≈ 22.3 µM)
- MIC ([2]; clinical isolate GN 3465): 100 µg/mL (≈ 179 µM)
- MIC ([2]; clinical isolate GN 3481): 6.25 µg/mL (≈ 11.2 µM)
- MIC ([2]; clinical isolate GN 3611): > 200 µg/mL
- MIC ([2]; clinical isolate K-1): 6.25 µg/mL (≈ 11.2 µM)
- MIC ([2]; clinical isolate K-2): 12.5 µg/mL (≈ 22.3 µM)
- MIC ([2]; clinical isolate K-3): 200 µg/mL (≈ 357 µM)
- MIC ([2]; clinical isolate K-4): 25 µg/mL (≈ 44.7 µM)
- MIC [3]: 25 µg/mL (≈ 44.7 µM)
- MIC [4]: < 0.1 µg/mL
- MIC [17]: 3.13 µg/mL (≈ 5.59 µM)
- MIC [5]: 3.13 µg/mL (≈ 5.59 µM)
- MIC [6]: 0.79 µg/mL (≈ 1.41 µM)
- MIC ([9]; clinical isolate GN 917): 6.25 µg/mL (≈ 11.2 µM)
- MIC ([9]; clinical isolate GN 4081): 25 µg/mL (≈ 44.7 µM)
- MIC ([9]; clinical isolate GN 4117): 25 µg/mL (≈ 44.7 µM)
- MIC [10]: 3.13 µg/mL (≈ 5.59 µM)
- MIC [11]: 1.56 µg/mL (≈ 2.79 µM)
- MIC ([12]; clinical isolate GN 82): 50 µg/mL (≈ 89.4 µM)
- MIC ([12]; clinical isolate GN 163): 50 µg/mL (≈ 89.4 µM)
- MIC ([12]; clinical isolate GN 221): 12.5 µg/mL (≈ 22.3 µM)
- MIC ([12]; clinical isolate GN 244): 50 µg/mL (≈ 89.4 µM)
- MIC ([12]; clinical isolate GN 376): 50 µg/mL (≈ 89.4 µM)
- MIC ([12]; clinical isolate GN 383): 50 µg/mL (≈ 89.4 µM)
- MIC ([12]; clinical isolate GN 1035): 200 µg/mL (≈ 357 µM)
- MIC ([12]; clinical isolate GN 1091): 50 µg/mL (≈ 89.4 µM)
- MIC ([12]; clinical isolate GN 2565): 100 µg/mL (≈ 179 µM)
- MIC ([12]; clinical isolate GN 2987): 50 µg/mL (≈ 89.4 µM)
- MIC ([12]; clinical isolate S-1): 200 µg/mL (≈ 357 µM)
- MIC ([12]; clinical isolate S-2): 100 µg/mL (≈ 179 µM)
- MIC ([12]; clinical isolate S-3): 100 µg/mL (≈ 179 µM)
- MIC ([12]; clinical isolate S-4): 100 µg/mL (≈ 179 µM)
- MIC ([13]; clinical isolate F-1): 3.13 µg/mL (≈ 5.59 µM)
- MIC ([13]; clinical isolate F-2): 0.78 µg/mL (≈ 1.39 µM)
- MIC ([13]; clinical isolate F-3): 1.56 µg/mL (≈ 2.79 µM)
- MIC ([13]; clinical isolate F-4): 1.56 µg/mL (≈ 2.79 µM)
- MIC ([13]; clinical isolate F-5): 50 µg/mL (≈ 89.4 µM)
- MIC ([13]; clinical isolate MS 8588): 1.56 µg/mL (≈ 2.79 µM)
- MIC ([13]; clinical isolate MS 8596): 0.78 µg/mL (≈ 1.39 µM)
- MIC ([13]; clinical isolate MS 8619): 0.78 µg/mL (≈ 1.39 µM)
- MIC ([13]; clinical isolate MS 8684): 1.56 µg/mL (≈ 2.79 µM)
- MIC ([13]; clinical isolate MS 8713): 0.78 µg/mL (≈ 1.39 µM)
- MIC [15]: 6.25 µg/mL (≈ 11.2 µM)
- MIC [16]: 3.13 µg/mL (≈ 5.59 µM)

Source: US4110327A, “2,3 Diketo-piperazinocarbonylamino alkanoic acids and derivatives” (Toyama Chemical Co., Ltd., priority 1974, dated 1978)
